# ± gives the expanded uncertainty stated by the source.
# Conditions: Liquid
compound,measurement,setting,value
C=CCCl [3-chloro-1-propene],vapor or sublimation pressure,333.15 K,164.65 ± 1.6 kPa
same,vapor or sublimation pressure,373.1 K,489.25 ± 3.4 kPa
CC(C)C [2-methylpropane],vapor or sublimation pressure,298.15 K,352.39 ± 2.8 kPa
same,vapor or sublimation pressure,348.15 K,1212.7 ± 7.9 kPa
"OCCCCO [1,4-butanediol]",vapor or sublimation pressure,383.15 K,0.664 ± 0.064 kPa
O=C1CCCO1 [γ-butyrolactone],vapor or sublimation pressure,383.15 K,5.15 ± 0.087 kPa
Oc1ccccc1 [phenol],vapor or sublimation pressure,373.1 K,5.506 ± 0.12 kPa
same,vapor or sublimation pressure,433.15 K,53.23 ± 0.37 kPa
CC#N [acetonitrile],vapor or sublimation pressure,333.15 K,49.16 ± 0.53 kPa
same,vapor or sublimation pressure,393.15 K,297.37 ± 2.1 kPa
same,vapor or sublimation pressure,453.15 K,1096.9 ± 7 kPa
CC(=O)c1ccccc1 [acetophenone],vapor or sublimation pressure,373.1 K,3.573 ± 0.091 kPa
same,vapor or sublimation pressure,433.15 K,32.02 ± 0.24 kPa
"C=CCCC=C [1,5-hexadiene]",vapor or sublimation pressure,333.15 K,103.15 ± 1.3 kPa
same,vapor or sublimation pressure,373.1 K,316.61 ± 2.2 kPa
"CC(Cl)CCl (stereo unspecified) [1,2-dichloropropane]",vapor or sublimation pressure,333.15 K,30.14 ± 0.27 kPa
same,vapor or sublimation pressure,353.15 K,61.07 ± 0.44 kPa
CC(=O)OC(C)C [1-methylethyl ethanoate],vapor or sublimation pressure,333.15 K,37.73 ± 0.44 kPa
same,vapor or sublimation pressure,393.15 K,249.59 ± 1.8 kPa
same,vapor or sublimation pressure,453.15 K,939.9 ± 6 kPa
"Cl/C=C\CCl [(Z)-1,3-dichloro-1-propene]",vapor or sublimation pressure,333.15 K,22.61 ± 0.25 kPa
same,vapor or sublimation pressure,353.15 K,47.29 ± 0.42 kPa
C1CO1 [oxirane],vapor or sublimation pressure,298.15 K,174.71 ± 1.6 kPa
same,vapor or sublimation pressure,348.15 K,766.7 ± 5 kPa
C=CCl [chloroethene],vapor or sublimation pressure,273.1 K,172 ± 1.8 kPa
same,vapor or sublimation pressure,313.15 K,601.5 ± 4 kPa

# Source: the NIST ThermoML archive (doi:10.1021/je050317k)
